Experimental data taken from patent US10258599B2, “Compounds for use in the prevention or treatment of cancer” (SEMMELWEIS UNIVERSITY, priority 2014, dated 2019).

Assays:
[1] = system: catecholaminergic neurons; assay: Shuttle box: antagonism of tetrabenazine-induced learning deficit (conditioned avoidance reflex); type: in vivo, rat
Description: In a modified version of the shuttle box the acquisition of a two-way conditioned avoidance reflex (CAR) was analyzed during 5 consecutive days. The rat was put in a box divided inside into two parts by a barrier with a small gate in the middle, and the animal was trained to cross the barrier under the influence of a conditioned stimulus (CS, light flash). […] One trial consisted of 10 s intertrial interval, followed by 20 s CS. The last 5 s of CS overlaped the 5 s US. At each learning session, the number of CARs, EFs and intersignal reactions (IRs) are automatically counted and evaluated by multi-way ANOVA.
Tetrabenazine-treatment (1 mg/kg s.c.) depletes at least 90% of norepinephrine and dopamine from their stores in the nerve terminals of the catecholaminergic neurons in the brain stem. Due to the weak performance of the catecholaminergic brain engine, the activation of the cortical neurons remains below the level required for the acquisition of a CAR. The learning deficit caused by tetrabenazine-treatment can be antagonized by the administration of a synthetic CAE substance or an A-type MAO inhibitor, whereas selective inhibition of B-type MAO or inhibition of the reuptake of catecholamines and/or serotonin is ineffective (Knoll et al., 1992).

[2] = system: mouse lung adenocarcinoma tumors; assay: Mouse lung adenocarcinoma xenograft model in Balb/c nude mice; type: in vivo
Description: Mouse primary lung adenocarcinoma tumors maintained subcutaneously were utilized in the present study. Tumors with sizes of 3 mm in diameter were implanted subcutaneously in a total of 18 FVB/N female mice with a bodyweight of 25 g. From the day after tumor inoculation, 6-6 animals started receiving (−)-BPAP daily as a subcutaneous injection at a concentration of either 0.0001 mg/kg (low dose) or 0.05 mg/kg (high dose). Tumor sizes were measured twice a week using a digital caliper. Tumor volumes were calculated by the following formula: […]
Statistical analyses were made by Graphpad Prism 4.03 software. Significances of changes between control and (−)-BPAP-treated groups were assessed by using Mann-Whitney U-test. Significance was declared at the standard p<0.05 level.
Next, the same experiment was repeated using 18 Balb/c nude mice to explore whether the adaptive immune system plays a role in the tumor suppressor action of (−)-BPAP.

[3] = shuttle box, 1 mg/kg tetrabenazine s.c.

Compound: CCCN[C@H](CCC)Cc1cc2ccccc2o1 [(−)-BPAP, (2R)-1-(1-benzofuran-2-yl)-N-propylpentane-2-amine]
- effect on tetrabenazine-induced learning deficit ([1]; 0.0001 mg/kg (FIG. 4)): antagonizing the tetrabenazine-induced learning deficit
- dose with the non-specific enhancer effect selected for the longevity study [1, 3]: 50 µg/kg
- optimal dose that exerted the specific enhancer effect [1, 3]: 0.1 µg/kg
- very high dose range effective in antagonizing the tetrabenazine-induced learning deficit (MAO-A inhibition) [1, 3]: 2000 to 10000 µg/kg
- tumor size versus control ([2]; high dose 0.05 mg/kg s.c. daily): did not cause significant changes in tumor size
- tumor growth (tumor volume) versus control ([2]; low dose 0.0001 mg/kg s.c. daily): significant inhibition of tumor growth
